From patent publication US4387238A, “Epoxysuccinamic acid compounds” (Taisho Pharmaceutical Co., Ltd., priority 1978, dated 1983)
Where two headings read alike, the source gives them in different places.

Tests used:
[1] = tested on: adjuvant-induced polyarthritis; experiment: Effect on the development of adjuvant-induced polyarthritis in rat (hind paw volume); assay type: in vivo, Sprague Dawley rat; details: 30 mg/kg of body weight, daily oral, 8 rats/group
Description: The compounds of the present invention show excellent anti-inflammatory activity as measured by their ability to inhibit adjuvant induced polyarthritis as compared with the known epoxysuccinates. That is, they show potent and continuous effectiveness on oral administration of smaller components than the known epoxysuccinic acid compounds. Effect of the compounds of the present invention on the development of adjuvant-induced polyarthritis in rat was assayed as follows: Adjuvant arthritis is produced by a single intracutaneous injection of 0.1 ml of the adjuvant mixture containing heat-killed mycobacteria of the human Aoyama B strain suspended in liquid paraffin in 0.6% in the middle part of the distal tail of Sprague Dawley rat (female, 8 weeks old). The compounds suspended in 0.5% carboxymethylcellulose solution protect the animal against the development of lession of adjuvant arthritis in daily oral administration beginning on the day of adjuvant injection and continuing for 24 days thereafter. The activity is measured as the mean inhibition percent for the increase of the hind paw volume of the 8 rats/group on the days 17 and 23 on which the legs become inflamed and reach maximum volumes. The compound Nos. in Table 1 are as defined in Examples as described hereinafter.

papain = target: T1, papain (Carica papaya, UniProt P00784); experiment: Papain inhibitory activity (milk casein proteolysis); assay type: biochemical; design: unit not given beside the values; details: amount of inhibitor for 50% inhibition; pH 6.8, 40° C., casein substrate
T1 construct: purchased Sigma Chem. Co
T1 sequence (P00784 134-345): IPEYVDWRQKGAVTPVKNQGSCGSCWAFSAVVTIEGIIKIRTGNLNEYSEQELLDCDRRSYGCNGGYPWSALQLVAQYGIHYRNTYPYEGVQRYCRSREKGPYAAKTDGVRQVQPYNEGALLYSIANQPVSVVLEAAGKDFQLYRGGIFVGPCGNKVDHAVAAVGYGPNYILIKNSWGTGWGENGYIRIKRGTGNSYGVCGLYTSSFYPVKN
Description: Papain inhibitory activity of the compounds of the present invention was assayed as follows: To 0.5 ml of a solution of papain (80 μg/ml, Sigma Chem. Co., 2x, cry.), were added 0.25 ml of 40 mM cysteine dissolved in 20 mM disodium ethylenediamine tetraacetic acid solution adjusted pH to 6.8 with sodium hydroxide and 0.25 ml of 33 mM phosphate buffer (pH 6.8) with or without inhibitor. After incubation for 15 minutes at 40° C., the resulting mixture was added to 5 ml of 1% milk casein solution in the same buffer as described above, and further incubated for 10 minutes at 40° C. Then the mixture was mixed with 5 ml of 0.44 M trichloroacetic acid solution and followed by filtration with a sheet of Toyo filter paper No. 4.
The extinction of the filtrate was read at 280 nm. The percent inhibition was calculated from the formula, 100×(B-A)/B; wherein B stands for the absorbance without inhibitor and A for the absorbance with inhibitor. The compound Nos. in Table 2 are as defined in Examples as described hereinafter.

[2] = 408 h, day 17, mean inhibition for increase of hind paw volume, read-out: Inhibition(%) 17 days
[3] = 552 h, day 23, mean inhibition for increase of hind paw volume, read-out: Inhibition(%) 23 days

SMILES | inhibition in vivo at 30 mg/kg [1, 2] | inhibition in vivo at 30 mg/kg [1, 3] | ID50 (papain)
CCOC(=O)[C@@H]1O[C@H]1C(=O)Nc1ccccc1 (relative stereo) [Compound No. 1, ethyl N-phenyl-2,3-epoxysuccinamate] | 70% | 62% | 24.04 γ
CCOC(=O)[C@@H]1O[C@H]1C(=O)Nc1ccc([N+](=O)[O-])cc1 (relative stereo) [Compound No. 5, ethyl N-4'-nitrophenyl-2,3-epoxysuccinamate] | 65% | 48% | 22.32 γ
O=C(NC1CCCCC1)[C@@H]1O[C@H]1C(=O)OC1CCCC1 (relative stereo) [Compound No. 25, cyclopentyl N-cyclohexyl-2,3-epoxysuccinamate] | 76% | 58% | 3.68 γ
CCOC(=O)[C@@H]1O[C@H]1C(=O)N(C)C1CCCCC1 (relative stereo) [Compound No. 31, ethyl N-methyl-N-cyclohexyl-2,3-epoxysuccinamate] | 45% | 38% | 53.19 γ
CC(C)COC(=O)[C@H]1O[C@@H]1C(=O)Nc1ccccc1 (relative stereo) [Compound No. 40, Isobutyl N-phenyl-2,3-epoxysuccinamate] | 40% | 35% | 13.20 γ
O=C(Nc1ccccc1)[C@H]1O[C@@H]1C(=O)OC1CCCCC1 (relative stereo) [Compound No. 45, Cyclohexyl N-phenyl-2,3-epoxysuccinamate] | 65% | 49% | 5.89 γ
O=C(NCc1ccccc1)[C@H]1O[C@@H]1C(=O)Oc1ccccc1 (relative stereo) [Compound No. 48, Phenyl N-benzyl-2,3-epoxysuccinamate] | 45% | 40% | 3.83 γ
CCNC(=O)[C@H]1O[C@@H]1C(=O)OC1CCCCC1 (relative stereo) [Compound No. 66, Cyclohexyl N-ethyl-2,3-epoxysuccinamate] | 75% | 62% | 11.05 γ
CCOC(=O)[C@@H]1O[C@H]1C(=O)N1CCC(C)CC1 (relative stereo) [Compound No. 76, ethyl N-3'-methylpentamethylene-2,3-epoxysuccinamate] | 48% | 42% | 79.53 γ
O=C(O)[C@@H]1O[C@H]1C(=O)NCC1CCCCC1 (relative stereo) [Compound No. 98, potassium N-cyclohexanemethyl-2,3-epoxysuccinamate] | 55% | 41% | 0.205 γ
C=CCOC(=O)[C@H]1O[C@@H]1C(=O)NCC1CCCC1 (relative stereo) [compound 38, Allyl N-cyclopentanemethyl-2,3-epoxysuccinamate] |  |  | 4.26 γ
COC(=O)[C@@H]1O[C@H]1C(=O)NC(C)C (stereo in doubt) [Compound No. 34, Methyl N-isopropyl-2,3-epoxysuccinamate] |  |  | 32.35 γ
COC(=O)[C@H]1O[C@@H]1C(=O)NC(C)C (stereo in doubt) [Compound No. 60, Methyl N-isopropyl-2,3-epoxysuccinamate] |  |  | 32.35 γ
CCOC(=O)[C@@H]1O[C@H]1C(=O)N1CCOC(C)C1 (stereo partly shown) [Compound No. 33, ethyl N-1'-methyloxydiethylene-2,3-epoxysuccinamate] |  |  | 95.10 γ
CCOC(=O)C1OC1C(=O)N1CCSCC1C (stereo not shown) [Compound No. 80, Ethyl N-1'-methylthiadiethylene-2,3-epoxysuccinamate] |  |  | 120.53 γ
CCOC(=O)C1OC1C(=O)N1CCCC1C(=O)OCc1ccccc1 (stereo not shown) [Compound No. 86, ethyl N-1'-carbobenzoxytetramethylene-2,3-epoxysuccinamate] |  |  | 105.50 γ
CCOC(=O)C1OC1C(=O)N1CCCC1C(=O)OC (stereo not shown) [Compound No. 87, ethyl N-1'-carbomethoxytetramethylene-2,3-epoxysuccinamate] |  |  | 98.10 γ
CCCCOC(=O)C1CCCN1C(=O)C1OC1C(=O)OCC (stereo not shown) [Compound No. 88, ethyl N-1'-carbobutoxytetramethylene-2,3-epoxysuccinamate] |  |  | 118.41 γ
O=C(O)C1OC1C(=O)N1CCCC1C(=O)O (stereo not shown) [Compound No. 99, potassium N-1'-carbopotassium oxytetramethylene-2,3-epoxysuccinamate] |  |  | 0.104 γ
O=C(O)C1OC1C(=O)N1CCCC1C(=O)O (stereo not shown) [Compound No. 106, N-1'-carboxytetramethylene-2,3-epoxysuccinamic acid] |  |  | 0.301 γ
